Data reported in ChEMBL document CHEMBL2021911 (Bioorg Med Chem Lett, 2012).

Assays:
[1] = target: T1, Muscarinic acetylcholine receptor M1 (Homo sapiens, UniProt P11229); assay: Agonist activity at human muscarinic M1 receptor; assay type: functional
T1 sequence (P11229 whole entry): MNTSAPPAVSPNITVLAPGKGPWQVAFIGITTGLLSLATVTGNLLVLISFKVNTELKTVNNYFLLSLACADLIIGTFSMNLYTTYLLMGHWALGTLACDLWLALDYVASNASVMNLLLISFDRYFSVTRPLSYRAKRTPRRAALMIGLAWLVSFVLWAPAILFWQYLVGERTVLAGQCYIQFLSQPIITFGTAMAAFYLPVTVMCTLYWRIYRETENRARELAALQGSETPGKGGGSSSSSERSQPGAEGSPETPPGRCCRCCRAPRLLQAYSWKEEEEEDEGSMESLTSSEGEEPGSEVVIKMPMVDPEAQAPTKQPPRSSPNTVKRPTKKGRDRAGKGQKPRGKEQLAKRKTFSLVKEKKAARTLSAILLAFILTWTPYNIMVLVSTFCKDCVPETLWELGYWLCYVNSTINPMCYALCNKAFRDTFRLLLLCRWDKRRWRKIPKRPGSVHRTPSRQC

[2] = target: T2, Muscarinic acetylcholine receptor M1 (Homo sapiens) (UniProt P11229); assay: Agonist activity at human muscarinic M1 receptor at 30 uM relative to acetylcholine; assay type: functional
T2 sequence (whole entry): T1 sequence (P11229 whole entry)

Structure (SMILES) | EC50 ([1]; read-out: EC50) [nM] | Activity [2] [%] | EC50 [1]
CCOC(=O)N1[C@@H]2CC[C@H]1C[C@H](NCCNC(=O)c1cccc(OC)c1)C2 | 3600 | 33 | –
CS(=O)(=O)N1[C@@H]2CC[C@H]1C[C@H](NCCNC(=O)c1ccccc1)C2 | – | – | Not Active
CCOC(=O)N1[C@@H]2CC[C@H]1C[C@H](NCCNC(=O)c1ccc(F)c(F)c1)C2 | 810 | 50 | –
CCOC(=O)N1[C@@H]2CC[C@H]1C[C@H](NCCNC(=O)C1CCCCC1)C2 | 1500 | 34 | –
CCOC(=O)N1C[C@H]2CC[C@@H](C1)[C@H]2NCCNC(=O)c1ccccc1C | 170 | 51 | –
CCCC(=O)N1[C@@H]2CC[C@H]1C[C@H](NCCNC(=O)c1ccccc1)C2 | – | – | Not Active
CCOC(=O)N1[C@@H]2CC[C@H]1C[C@H](NCCNC(=O)c1ccncc1)C2 | > 10000 | 6 | –
CCOC(=O)N1[C@@H]2CC[C@H]1C[C@H](NCCNC(=O)N1CCOCC1)C2 | 2000 | 44 | –
CCOC(=O)N1[C@@H]2CC[C@H]1C[C@H](NCCNC(=O)N1CCCC1)C2 | > 10000 | 11 | –
CCOC(=O)N1[C@@H]2CC[C@H]1CC(NCCNC(=O)c1ccc(C)c(F)c1)C2 (mixture of isomers) | 470 | 40 | –
CCOC(=O)N1[C@@H]2CC[C@H]1C[C@H](NCCNC(=O)c1ccc[nH]1)C2 | – | – | Not Active
CCOC(=O)N1[C@@H]2CC[C@H]1C[C@H](NCCNC(=O)c1cc(F)cc(F)c1)C2 | 1900 | 43 | –
CCOC(=O)N1[C@@H]2CC[C@H]1C[C@H](NCCNC(=O)c1ccccc1C(F)(F)F)C2 | – | – | Not Active
CCOC(=O)N1C2CCC1CC(N1CCC[C@H](NC(=O)c3ccccc3C)C1)C2 (mixture of isomers) | 2100 | 52 | –
CCOC(=O)N1C[C@@H]2C(NCCNC(=O)c3ccccc3C)[C@@H]2C1 (stereo partly specified) | 4100 | 60 | –
CCOC(=O)N1[C@@H]2CC[C@H]1C[C@H](NCCNC(=O)N1[C@H](C)CCC[C@@H]1C)C2 | 2500 | 39 | –
C=CCOC(=O)N1[C@@H]2CC[C@H]1C[C@H](NCCNC(=O)c1ccccc1)C2 | 2000 | 40 | –
CCOC(=O)N1[C@@H]2CC[C@H]1C[C@H](NCCNC(=O)c1ccc(F)cc1)C2 | 830 | 54 | –
CCOC(=O)N1[C@@H]2CC[C@H]1C[C@H](NCCNC(=O)c1cccc(Cl)c1)C2 | 440 | 63 | –
CCOC(=O)N1[C@@H]2CC[C@H]1C[C@H](NCCNC(=O)N1CCCCC1)C2 | 570 | 53 | –
CCOC(=O)N1[C@@H]2CC[C@H]1C[C@H](NCCNC(=O)c1ccccc1C)C2 | 1100 | 47 | –
CCOC(=O)N1C2CCC1CC(N1CC(NC(=O)c3ccccc3)C1)C2 (mixture of isomers) | 2200 | 34 | –
COC(=O)N1[C@@H]2CC[C@H]1C[C@H](NCCNC(=O)c1ccccc1)C2 | > 10000 | 21 | –
CCOC(=O)N1C[C@H]2CC[C@@H](C1)[C@H]2NCCNC(=O)c1cccc(OC)c1 | 240 | 47 | –

Structure (SMILES) | EC50 ([1]; read-out: EC50) [nM] | Activity [2] [%] | EC50 [1]
CCOC(=O)N1[C@@H]2CC[C@H]1C[C@H](NCCNC(=O)c1ccccc1Cl)C2 | 2300 | 37 | –
CCOC(=O)N1C[C@H]2CC[C@@H](C1)[C@H]2NCCNC(=O)c1cc(F)cc(F)c1 | 200 | 53 | –
CCOC(=O)N1C2CCC1CC(N1CCC[C@H](NC(=O)c3ccccc3)C1)C2 (mixture of isomers) | > 10000 | 12 | –
CCOC(=O)N1C2CCC1CC(N1CC[C@H](NC(=O)c3ccccc3)C1)C2 (mixture of isomers) | 1200 | 39 | –
COC(=O)C12CCC(NCCNC(=O)c3ccccc3)(CC1)CC2 | 6200 | 18 | –
CCOC(=O)N1[C@@H]2CC[C@H]1C[C@H](NCCNC(=O)c1cccs1)C2 | 1000 | 33 | –
CCOC(=O)N1CC[C@H]2[C@H](CCCN2CCNC(=O)c2ccccc2)C1 (relative stereo) | 1200 | 13 | –
O=C(NCCN[C@@H]1C[C@H]2CC[C@@H](C1)N2C(=O)Oc1ccccc1)c1ccccc1 | – | – | Not Active
CCOC(=O)N1[C@@H]2CC[C@H]1C[C@H](NCCNS(=O)(=O)c1cccc(OC)c1)C2 | – | – | Not Active
CCOC(=O)N1C[C@H]2CC[C@@H](C1)[C@H]2NCCNC(=O)N1CCCCC1 | 690 | 9 | –
CCOC(=O)N1C2CCC1CC(N1CC[C@@H](NC(=O)c3ccccc3)C1)C2 (mixture of isomers) | 320 | 62 | –
CC(C)C(=O)N1[C@@H]2CC[C@H]1C[C@H](NCCNC(=O)c1ccccc1)C2 | 5400 | 23 | –
CCOC(=O)N1C[C@H]2CC[C@@H](C1)[C@H]2NCCNC(=O)N1CCOCC1 | > 10000 | 11 | –
CCOC(=O)N1CCC(N2CCC[C@@H](NC(=O)c3ccccc3C)C2)CC1 | 890 | 71 | –
CCOC(=O)N1[C@@H]2CC[C@H]1C[C@H](NCCNC(=O)NC1CC1)C2 | – | – | Not Active
CCOC(=O)N1C[C@H]2CC[C@@H](C1)[C@H]2NCCNC(=O)C1CCCCC1 | 1000 | 37 | –
CCOC(=O)N1C[C@H]2CC[C@@H](C1)[C@H]2NCCNC(=O)c1cccs1 | 170 | 54 | –
CCOC(=O)N1C2CCC1CC(N1CC[C@@H](NC(=O)c3ccccc3C)C1)C2 (mixture of isomers) | 1200 | 55 | –
O=C(NCCN[C@@H]1C[C@H]2CC[C@@H](C1)N2C(=O)OCc1ccccc1)c1ccccc1 | > 10000 | 7 | –
CCC(=O)N1[C@@H]2CC[C@H]1C[C@H](NCCNC(=O)c1ccccc1)C2 | – | – | Not Active
CN(C)C(=O)N1[C@@H]2CC[C@H]1C[C@H](NCCNC(=O)c1ccccc1)C2 | – | – | Not Active
CCS(=O)(=O)N1[C@@H]2CC[C@H]1C[C@H](NCCNC(=O)c1ccccc1)C2 | – | – | Not Active
CCOC(=O)N1C2CCC1CC(N1CC[C@H](NC(=O)c3ccccc3C)C1)C2 (mixture of isomers) | > 10000 | 22 | –
CCOC(=O)N1CC[C@H]2[C@@H](CCCN2CCNC(=O)c2ccccc2)C1 (relative stereo) | 3200 | 13 | –
